The numbers were not newly measured in patent publication US7101842B2, “Targeted delivery of drugs for the treatment of parasitic infections” (priority 2001, dated 2006), which cites them from elsewhere.

In this data set the test system is trypanosomiasis. To be noted: patients treated for sleeping sickness.

Structures are written as SMILES.

Take `Nc1nc(N)nc(Nc2ccc([As]3SCC(CO)S3)cc2)n1` (centres unmarked) [melarsopral]: the “fatal encepholopathy in recipients” value is 5–7% and the relapse rates is given as at most 10%.
